Test results reported in US6737383B1, “Herbicidal oxadiazolidines” (priority 1999, dated 2004).

Key:
[1] = tested on: soybean; test: Test B pre/postemergence soybean; type: in vivo, Glycine max
Summary of the method: (§1)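 Response is a visual 0-to-10 score relative to untreated plants, where 0 means no effect and 10 means complete control, taken twelve to sixteen days after application. Treatments went onto soil at planting and onto foliage of 1- to 4-leaf plants, using a surfactant-containing non-phytotoxic solvent.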

[2] = tested on: cocklebur; test: Test B pre/postemergence cocklebur; type: in vivo, Xanthium strumarium
Summary of the method: as §1

[3] = tested on: surinam grass; test: Test B pre/postemergence surinam grass; type: in vivo, Brachiaria decumbens
Summary of the method: as §1

[4] = tested on: bedstraw; test: Test B pre/postemergence bedstraw; type: in vivo, Galium aparine
Summary of the method: as §1

[5] = tested on: crabgrass; test: Test B pre/postemergence crabgrass; type: in vivo, Digitaria sanguinalis
Summary of the method: as §1

[6] = tested on: pigweed; test: Test B pre/postemergence pigweed; type: in vivo, Amaranthus retroflexus
Summary of the method: as §1

[7] = tested on: sugar beet; test: Test B pre/postemergence sugar beet; type: in vivo, Beta vulgaris
Summary of the method: as §1

[8] = tested on: blackgrass; test: Test B pre/postemergence blackgrass; type: in vivo, Alopecurus myosuroides
Summary of the method: as §1

[9] = tested on: wild oat; test: Test B pre/postemergence wild oat; type: in vivo, Avena fatua
Summary of the method: as §1

[10] = tested on: giant foxtail; test: Test B pre/postemergence giant foxtail; type: in vivo, Setaria faberii
Summary of the method: as §1

[11] = tested on: purple nutsedge; test: Test B pre/postemergence purple nutsedge; type: in vivo, Cyperus rotundus
Summary of the method: as §1

[12] = tested on: morningglory; test: Test B pre/postemergence morningglory; type: in vivo, Ipomoea hederacea
Summary of the method: as §1

[13] = tested on: wheat; test: Test B pre/postemergence wheat; type: in vivo, Triticum aestivum
Summary of the method: as §1

[14] = tested on: rape; test: Test B pre/postemergence rape; type: in vivo, Brassica napus
Summary of the method: as §1

[15] = tested on: corn; test: Test B pre/postemergence corn; type: in vivo, Zea mays
Summary of the method: as §1

[16] = tested on: velvetleaf; test: Test B pre/postemergence velvetleaf; type: in vivo, Abutilon theophrasti
Summary of the method: as §1

[17] = Postemergence, Rate 125 g/ha, scale of 0 to 10 where 0 is no effect and 10 is complete control
[18] = Postemergence, Rate 250 g/ha, scale of 0 to 10, 0 is no effect, 10 is complete control
[19] = Postemergence, Rate 500 g/ha, scale of 0 to 10 where 0 is no effect and 10 is complete control
[20] = Preemergence, Rate 62 g/ha, scale 0 to 10 (0 no effect, 10 complete control)
[21] = Preemergence, Rate 125 g/ha, scale of 0 to 10 where 0 is no effect and 10 is complete control
[22] = Preemergence, Rate 500 g/ha, scale of 0 to 10 where 0 is no effect and 10 is complete control
[23] = Postemergence, Rate 62 g/ha, scale of 0 to 10, 0 is no effect, 10 is complete control
[24] = Preemergence, Rate 62 g/ha, scale of 0 to 10 where 0 is no effect and 10 is complete control
[25] = Preemergence, Rate 250 g/ha, scale 0 to 10 (0 no effect, 10 complete control)

CC(C)N(C(=O)n1oc(=O)n(CCCC(F)(F)F)c1=O)c1ccccc1 [Compound 585]
Plant response rating, Soybean [1, 17]: 0 | Soybean plant response rating [1, 18]: 4 | Plant response rating, Soybean [1, 19]: 3 | Soybean plant response rating [1, 20]: 0 | Soybean plant response rating [1, 21]: 0 | Soybean plant response rating [1, 22]: 3 | Cocklebur plant response rating [2, 23]: 0 | Plant response rating, Cocklebur [2, 17]: 0 | Cocklebur plant response rating [2, 18]: 0 | Plant response rating, Cocklebur [2, 19]: 7 | Cocklebur plant response rating [2, 20]: 0 | Cocklebur plant response rating [2, 21]: 0 | Cocklebur plant response rating (0 to 10 scale) ([2]; Preemergence, Rate 250 g/ha): 0 | Cocklebur plant response rating [2, 22]: 3 | B. signalgrass plant response rating [3, 23]: 0 | Plant response rating, B. signalgrass [3, 17]: 0 | B. signalgrass plant response rating [3, 18]: 0 | Plant response rating, B. signalgrass [3, 19]: 7 | B. signalgrass plant response rating [3, 20]: 3 | B. signalgrass plant response rating [3, 21]: 8 | B. signalgrass plant response rating (0 to 10 scale, 0 is no effect, 10 is complete control) ([3]; Preemergence, Rate 250 g/ha): 9 | B. signalgrass plant response rating [3, 22]: 9 | Bedstraw plant response rating [4, 23]: 0 | Plant response rating, Bedstraw [4, 17]: 8 | Bedstraw plant response rating [4, 20]: 7 | Bedstraw plant response rating [4, 21]: 8 | Bedstraw plant response rating (0 to 10 scale) ([4]; Preemergence, Rate 250 g/ha): 9 | Bedstraw plant response rating [4, 22]: 8 | Plant response rating, Crabgrass [5, 17]: 5 | Crabgrass plant response rating [5, 18]: 9 | Plant response rating, Crabgrass [5, 19]: 9 | Crabgrass plant response rating [5, 20]: 5 | Crabgrass plant response rating [5, 21]: 8 | Crabgrass plant response rating [5, 22]: 10 | Plant response rating, Redroot pigweed [6, 17]: 0 | Redroot pigweed plant response rating [6, 18]: 3 | Plant response rating, Redroot pigweed [6, 19]: 7 | Redroot pigweed plant response rating [6, 20]: 6 | Redroot pigweed plant response rating [6, 21]: 9 | Redroot pigweed plant response rating [6, 22]: 10 | Plant response rating, Sugarbeets [7, 17]: 2 | Sugarbeets plant response rating [7, 18]: 4 | Plant response rating, Sugarbeets [7, 19]: 7 | Sugarbeets plant response rating [7, 20]: 0 | Sugarbeets plant response rating [7, 21]: 3 | Sugarbeets plant response rating [7, 22]: 6 | Blackgrass plant response rating [8, 23]: 3 | Plant response rating, Blackgrass [8, 17]: 6 | Blackgrass plant response rating [8, 18]: 6 | Plant response rating, Blackgrass [8, 19]: 7 | Blackgrass plant response rating [8, 20]: 3 | Blackgrass plant response rating [8, 21]: 8 | Blackgrass plant response rating (0 to 10 scale) ([8]; Preemergence, Rate 250 g/ha): 8 | Blackgrass plant response rating [8, 22]: 8 | Plant response rating, Wild oats [9, 17]: 0 | Wild oats plant response rating [9, 18]: 0 | Plant response rating, Wild oats [9, 19]: 2 | Wild oats plant response rating [9, 20]: 0 | Wild oats plant response rating [9, 21]: 3 | Wild oats plant response rating [9, 22]: 9 | Giant foxtail plant response rating [10, 23]: 6 | Plant response rating, Giant foxtail [10, 17]: 6 | Giant foxtail plant response rating [10, 18]: 8 | Plant response rating, Giant foxtail [10, 19]: 9 | Giant foxtail plant response rating [10, 20]: 7 | Giant foxtail plant response rating [10, 21]: 6 | Giant foxtail plant response rating [10, 22]: 10 | Nutsedge plant response rating [11, 23]: 0 | Plant response rating, Nutsedge [11, 17]: 0 | Nutsedge plant response rating [11, 18]: 0 | Plant response rating, Nutsedge [11, 19]: 0 | Nutsedge plant response rating [11, 20]: 0 | Nutsedge plant response rating [11, 21]: 0 | Nutsedge plant response rating [11, 22]: 10 | Morningglory plant response rating [12, 23]: 4 | Plant response rating, Morningglory [12, 17]: 8 | Morningglory plant response rating [12, 18]: 10 | Plant response rating, Morningglory [12, 19]: 10 | Morningglory plant response rating [12, 20]: 0 | Morningglory plant response rating [12, 21]: 0 | Morningglory plant response rating [12, 22]: 5 | Plant response rating, Wheat [13, 17]: 2 | Wheat plant response rating [13, 18]: 2 | Plant response rating, Wheat [13, 19]: 4 | Wheat plant response rating [13, 20]: 0 | Wheat plant response rating [13, 21]: 3 | Wheat plant response rating [13, 22]: 3 | Rape plant response rating [14, 23]: 0 | Plant response rating, Rape [14, 17]: 3 | Rape plant response rating [14, 18]: 5 | Plant response rating, Rape [14, 19]: 5 | Rape plant response rating [14, 20]: 3 | Rape plant response rating [14, 21]: 8 | Rape plant response rating [14, 22]: 10 | Corn plant response rating [15, 23]: 0 | Plant response rating, Corn [15, 17]: 0 | Corn plant response rating [15, 18]: 0 | Plant response rating, Corn [15, 19]: 5 | Corn plant response rating [15, 20]: 0 | Corn plant response rating [15, 21]: 2 | Corn plant response rating (0 to 10 scale) ([15]; Preemergence, Rate 250 g/ha): 3 | Corn plant response rating [15, 22]: 5 | Plant response rating, Velvetleaf [16, 17]: 3 | Velvetleaf plant response rating [16, 18]: 4 | Plant response rating, Velvetleaf [16, 19]: 5 | Velvetleaf plant response rating [16, 20]: 0 | Velvetleaf plant response rating [16, 21]: 0 | Velvetleaf plant response rating [16, 22]: 6

CC(C)N(C(=O)n1oc(=O)n(C(C)C=O)c1=O)c1ccccc1 (centres unmarked) [Compound 693]
Soybean plant response rating [1, 24]: 0 | Plant response rating, Soybean [1, 21]: 0 | Cocklebur plant response rating [2, 24]: 0 | Plant response rating, Cocklebur [2, 21]: 0 | Plant response rating, Cocklebur [2, 25]: 0 | Plant response rating, Cocklebur [2, 22]: 0 | B. signalgrass plant response rating [3, 24]: 0 | Plant response rating, B. signalgrass [3, 21]: 0 | Plant response rating, B. signalgrass [3, 25]: 0 | Plant response rating, B. signalgrass [3, 22]: 0 | Bedstraw plant response rating [4, 24]: 0 | Plant response rating, Bedstraw [4, 21]: 0 | Plant response rating, Bedstraw [4, 25]: 0 | Plant response rating, Bedstraw [4, 22]: 0 | Crabgrass plant response rating [5, 24]: 0 | Plant response rating, Crabgrass [5, 21]: 0 | Plant response rating, Crabgrass [5, 25]: 0 | Redroot pigweed plant response rating [6, 24]: 0 | Plant response rating, Redroot pigweed [6, 21]: 0 | Sugarbeets plant response rating [7, 24]: 0 | Plant response rating, Sugarbeets [7, 21]: 0 | Blackgrass plant response rating [8, 24]: 0 | Plant response rating, Blackgrass [8, 21]: 0 | Plant response rating, Blackgrass [8, 25]: 0 | Plant response rating, Blackgrass [8, 22]: 2 | Wild oats plant response rating [9, 24]: 0 | Plant response rating, Wild oats [9, 21]: 0 | Giant foxtail plant response rating [10, 24]: 0 | Plant response rating, Giant foxtail [10, 21]: 0 | Plant response rating, Nutsedge [11, 21]: 0 | Morningglory plant response rating [12, 24]: 0 | Plant response rating, Morningglory [12, 21]: 0 | Wheat plant response rating [13, 24]: 0 | Plant response rating, Wheat [13, 21]: 0 | Rape plant response rating [14, 24]: 0 | Plant response rating, Rape [14, 21]: 0 | Corn plant response rating [15, 24]: 0 | Plant response rating, Corn [15, 21]: 0 | Plant response rating, Corn [15, 25]: 0 | Velvetleaf plant response rating [16, 24]: 0 | Plant response rating, Velvetleaf [16, 21]: 0
